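Interpolation was linear, between the two tested concentrations surrounding the appropriate level; five concentrations were tested over 48 hours in 96-well plates. GI50 = concentration required for 50% inhibition of growth.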 Activity calls are given as the source filed them. Cut-off read from the data, not from the text of the source: active = GI50 up to about 1.1 µM and inactive = higher.
How the values were obtained:
Assay in all cases: DTP human tumour cell line panel, 48 h
NCI-H226 = test system: NCI-H226
SF-268 = test system: SF-268
SK-MEL-28 = test system: SK-MEL-28
CAKI-1 = test system: CAKI-1
HOP-92 = test system: HOP-92
SF-295 = test system: SF-295
A498 = test system: A498
SK-OV-3 = test system: SK-OV-3
MOLT-4 = test system: MOLT-4
K562 = test system: K562
Malme-3M = test system: Malme-3M
Hs-578T = test system: Hs-578T
PC-3 = test system: PC-3
OVCAR-8 = test system: OVCAR-8
HCT-15 = test system: HCT-15
NCI-H23 = test system: NCI-H23
MDA-MB-231 = test system: MDA-MB-231
786-0 = test system: 786-0
EKVX = test system: EKVX

SMILES | GI50 (NCI-H226) | GI50 (SF-268) | GI50 (SK-MEL-28) | GI50 (CAKI-1) | GI50 (HOP-92) | GI50 (SF-295) | GI50 (A498) | GI50 (SK-OV-3) | GI50 (MOLT-4) | GI50 (K562) | GI50 (Malme-3M) | GI50 (Hs-578T) | GI50 (PC-3) | GI50 (OVCAR-8) | GI50 (HCT-15) [µM] | GI50 (NCI-H23) | GI50 (MDA-MB-231) | GI50 (786-0) | GI50 (EKVX)
CN(C1=NS(=O)(=O)N=C(N(C)c2ccccc2)O1)c1ccccc1 | 14.9 µM (inactive) | 24.5 µM (inactive) | 22.8 µM (inactive) | 22.1 µM (inactive) | 23.6 µM (inactive) | 21.8 µM (inactive) | 20.5 µM (inactive) | 40.1 µM (inactive) | 27.4 µM (inactive) | 17.7 µM (inactive) | 24.2 µM (inactive) | 27.7 µM (inactive) | > 100 µM (inactive) | 17.4 µM (inactive) | 15.1 | 11.5 µM (inactive) | 17.6 µM (inactive) | 24.9 µM (inactive) | 22.2 µM (inactive)
COc1cccc(CCn2c(N)c(-c3ccccc3)c3ccc([N+](=O)[O-])cc3c2=O)c1 | 3.05 µM (inactive) | 16.2 µM (inactive) | 17.5 µM (inactive) | 6.3 µM (inactive) | 10.3 µM (inactive) | 3.78 µM (inactive) | 1.82 µM (inactive) | 5.07 µM (inactive) | 6.7 µM (inactive) | 1.02 µM (active) | 14.2 µM (inactive) | 1.85 µM (inactive) | 9.53 µM (inactive) | 1.98 µM (inactive) | 7.08 | 3.16 µM (inactive) | 8.45 µM (inactive) | 6.25 µM (inactive) | 12.3 µM (inactive)
CC1OC2/C=C\CC(O)C(C)(C)C3CCC(C)C4(O3)O[B-]35OC(C(=O)OC1C2)C1(OC(CCC1C)C(C)(C)C(O)C/C=C\C1CC(OC(=O)C4O3)C(C)O1)O5 (stereo not given) | 0.726 µM (active) | 2.02 µM (inactive) | 1.77 µM (inactive) | 7.6 µM (inactive) | 2.94 µM (inactive) | 1.8 µM (inactive) | 2.45 µM (inactive) | 4.47 µM (inactive) | 1.01 µM (active) | 7.46 µM (inactive) | 1.86 µM (inactive) | 1.54 µM (inactive) | 2.77 µM (inactive) | 3.13 µM (inactive) | 5.37 | 1.85 µM (inactive) | 1.99 µM (inactive) | 2.83 µM (inactive) | 2.15 µM (inactive)
c1ccc(C2=Nn3c(CCCCCCCCc4nnc5n4N=C(c4ccccc4)CS5)nnc3SC2)cc1 | 72.1 µM (inactive) | 23.1 µM (inactive) | > 100 µM (inactive) | 41.2 µM (inactive) | 34.2 µM (inactive) | 20.1 µM (inactive) | 39.1 µM (inactive) | 25.9 µM (inactive) | 32.4 µM (inactive) | 33.3 µM (inactive) | 28.2 µM (inactive) | 21.1 µM (inactive) | > 100 µM (inactive) | > 46.5 µM (inactive) | > 100 | > 74.6 µM (inactive) | 22.9 µM (inactive) | 14.8 µM (inactive) | 76.2 µM (inactive)
COc1cccc2c1-c1ccccc1[C@H](Nc1ccccc1)[C@@]2(C)O | 3.4 µM (inactive) | 5.71 µM (inactive) | 11.3 µM (inactive) | 4.1 µM (inactive) | 11.2 µM (inactive) | 4.13 µM (inactive) | 8.95 µM (inactive) | 4.27 µM (inactive) | 7.28 µM (inactive) | 3.31 µM (inactive) | 7.93 µM (inactive) | 4.97 µM (inactive) | 6.21 µM (inactive) | 10.4 µM (inactive) | 4.3 | 7.67 µM (inactive) | 10.3 µM (inactive) | 5.45 µM (inactive) | 11 µM (inactive)
COC(=O)c1ccccc1CC1Cc2cc3c(cc2C1=O)CCC3 (stereo not given) | 18.5 µM (inactive) | 29.6 µM (inactive) | 17.8 µM (inactive) | 11.1 µM (inactive) | 13.7 µM (inactive) | 14.6 µM (inactive) | 11.7 µM (inactive) | 18.5 µM (inactive) | 5.11 µM (inactive) | 3.69 µM (inactive) | 7.14 µM (inactive) | 19.6 µM (inactive) | 11.1 µM (inactive) | 20.1 µM (inactive) | 4.02 | 19.3 µM (inactive) | 8.85 µM (inactive) | 16.6 µM (inactive) | 25.8 µM (inactive)
c1ccc(C2C3=C(CCCC3)Nc3nc4cc5ccccc5cc4n32)cc1 (stereo not given) | > 100 µM (inactive) | > 100 µM (inactive) | > 100 µM (inactive) | > 100 µM (inactive) | > 100 µM (inactive) | > 100 µM (inactive) | > 100 µM (inactive) | > 100 µM (inactive) | > 100 µM (inactive) | > 100 µM (inactive) | > 100 µM (inactive) | > 100 µM (inactive) | > 100 µM (inactive) | > 100 µM (inactive) | > 100 | > 100 µM (inactive) | > 100 µM (inactive) | > 100 µM (inactive) | > 100 µM (inactive)
CSc1cc(N)ccc1/N=N/c1ccc(S(N)(=O)=O)cc1 | 13.2 µM (inactive) | 37.8 µM (inactive) | 25.5 µM (inactive) | 36.1 µM (inactive) | 21.8 µM (inactive) | 22.1 µM (inactive) | 48 µM (inactive) | 35.8 µM (inactive) | 31.3 µM (inactive) | 38.1 µM (inactive) | 24.7 µM (inactive) | 23.5 µM (inactive) | 32.7 µM (inactive) | 22.3 µM (inactive) | 21.8 | 33.4 µM (inactive) | 16.1 µM (inactive) | 26 µM (inactive) | 31 µM (inactive)
N=c1ccn2c(n1)OC1C(OP(=O)(O)O)C(CO)OC12 (stereo not given) | > 100 µM (inactive) | 99.5 µM (inactive) | > 83.4 µM (inactive) | > 24.5 µM (inactive) | > 100 µM (inactive) | 38.1 µM (inactive) | 10.8 µM (inactive) | > 53.6 µM (inactive) | 0.147 µM (active) | > 80 µM (inactive) | > 100 µM (inactive) | > 100 µM (inactive) | > 100 µM (inactive) | 5.45 µM (inactive) | > 100 | 6.93 µM (inactive) | > 100 µM (inactive) | 9.77 µM (inactive) | > 100 µM (inactive)
CC(=O)O[C@@H]1C(C2CCCCC2)C=[N+]([O-])O[C@@H]1OC1CCCC1(c1ccccc1)c1ccccc1 (stereo not given in full) | 16.6 µM (inactive) | 7.4 µM (inactive) | 2.32 µM (inactive) | 5.33 µM (inactive) | 10.1 µM (inactive) | 14.4 µM (inactive) | 7.41 µM (inactive) | 15.7 µM (inactive) | 3.32 µM (inactive) | 3.61 µM (inactive) | 2.99 µM (inactive) | 11 µM (inactive) | 9.59 µM (inactive) | 2.04 µM (inactive) | 1.92 | 11 µM (inactive) | 8.45 µM (inactive) | 3.76 µM (inactive) | 15.7 µM (inactive)
O=C1C=CC(=O)c2c(O)c(N(CCCl)CCCl)c(Cl)c(O)c21 | > 9.66 µM (inactive) | 5.46 µM (inactive) | > 5.6 µM (inactive) | 4.66 µM (inactive) | 2.98 µM (inactive) | > 10 µM (inactive) | 6.15 µM (inactive) | > 10 µM (inactive) | > 5.31 µM (inactive) | 4.79 µM (inactive) | 4.37 µM (inactive) | 6.25 µM (inactive) | 5.47 µM (inactive) | 4.51 µM (inactive) | 5.45 | 5.07 µM (inactive) | 4.56 µM (inactive) | 4.54 µM (inactive) | > 8.91 µM (inactive)
CCOC(=O)/C=C\[C@H]1OC(C)(C)O[C@H]1[C@H](O)[C@H]1COC(C)(C)O1 | > 100 µM (inactive) | 25.4 µM (inactive) | 17.7 µM (inactive) | 2.57 µM (inactive) | 13.2 µM (inactive) | > 100 µM (inactive) | 16.6 µM (inactive) | > 100 µM (inactive) | 19.2 µM (inactive) | 10.4 µM (inactive) | 18.9 µM (inactive) | 26.8 µM (inactive) | 20.7 µM (inactive) | 29.8 µM (inactive) | 17 | 21.7 µM (inactive) | 17.6 µM (inactive) | 19.4 µM (inactive) | 21.1 µM (inactive)
CC(C)OC(=O)c1cc(NC(=S)OC(C)C)ccc1Cl | 18.3 µM (inactive) | 26.9 µM (inactive) | 28.3 µM (inactive) | 15.1 µM (inactive) | 18.4 µM (inactive) | 18.5 µM (inactive) | 25.9 µM (inactive) | 37 µM (inactive) | 11.9 µM (inactive) | 30.4 µM (inactive) | 33.6 µM (inactive) | 17.1 µM (inactive) | 23.7 µM (inactive) | 26.4 µM (inactive) | 21.6 | 20.5 µM (inactive) | 15.3 µM (inactive) | 23.4 µM (inactive) | 7.8 µM (inactive)
CC(=O)Nc1cc(/C=C\C(=O)N2CC(CCl)c3c2cc(N)c2ccccc32)n(C)n1 (stereo not given) | 0.00805 µM (active) | 0.0057 µM (active) | 0.0144 µM (active) | 0.00129 µM (active) | 0.0194 µM (active) | 0.0135 µM (active) | 0.00373 µM (active) | 0.0163 µM (active) | 0.00201 µM (active) | 0.00417 µM (active) | 0.012 µM (active) | 0.0543 µM (active) | 0.0233 µM (active) | 0.00168 µM (active) | 0.0233 | 0.00192 µM (active) | 0.045 µM (active) | 0.00143 µM (active) | 0.0251 µM (active)
O=C(/C=C\c1ccc([N+](=O)[O-])cc1)c1ccccc(=O)c1O | 1.65 µM (inactive) | 0.977 µM (active) | 1.41 µM (inactive) | 1.32 µM (inactive) | 0.256 µM (active) | 1.42 µM (inactive) | 2.84 µM (inactive) | 4.3 µM (inactive) | 0.721 µM (active) | 0.92 µM (active) | 0.873 µM (active) | 3.88 µM (inactive) | 1.95 µM (inactive) | 0.9 µM (active) | 0.169 | 2.33 µM (inactive) | 3.37 µM (inactive) | 0.769 µM (active) | 1.81 µM (inactive)
